Experimental data from patent US8633183B2 (priority 2010, dated 2014).

Target: PI3Kalpha (Homo sapiens (Human), UniProt P42336)
Settings: read-out: IC50 PI3K

Chain of PI3Kalpha (P42336 whole entry, looked up): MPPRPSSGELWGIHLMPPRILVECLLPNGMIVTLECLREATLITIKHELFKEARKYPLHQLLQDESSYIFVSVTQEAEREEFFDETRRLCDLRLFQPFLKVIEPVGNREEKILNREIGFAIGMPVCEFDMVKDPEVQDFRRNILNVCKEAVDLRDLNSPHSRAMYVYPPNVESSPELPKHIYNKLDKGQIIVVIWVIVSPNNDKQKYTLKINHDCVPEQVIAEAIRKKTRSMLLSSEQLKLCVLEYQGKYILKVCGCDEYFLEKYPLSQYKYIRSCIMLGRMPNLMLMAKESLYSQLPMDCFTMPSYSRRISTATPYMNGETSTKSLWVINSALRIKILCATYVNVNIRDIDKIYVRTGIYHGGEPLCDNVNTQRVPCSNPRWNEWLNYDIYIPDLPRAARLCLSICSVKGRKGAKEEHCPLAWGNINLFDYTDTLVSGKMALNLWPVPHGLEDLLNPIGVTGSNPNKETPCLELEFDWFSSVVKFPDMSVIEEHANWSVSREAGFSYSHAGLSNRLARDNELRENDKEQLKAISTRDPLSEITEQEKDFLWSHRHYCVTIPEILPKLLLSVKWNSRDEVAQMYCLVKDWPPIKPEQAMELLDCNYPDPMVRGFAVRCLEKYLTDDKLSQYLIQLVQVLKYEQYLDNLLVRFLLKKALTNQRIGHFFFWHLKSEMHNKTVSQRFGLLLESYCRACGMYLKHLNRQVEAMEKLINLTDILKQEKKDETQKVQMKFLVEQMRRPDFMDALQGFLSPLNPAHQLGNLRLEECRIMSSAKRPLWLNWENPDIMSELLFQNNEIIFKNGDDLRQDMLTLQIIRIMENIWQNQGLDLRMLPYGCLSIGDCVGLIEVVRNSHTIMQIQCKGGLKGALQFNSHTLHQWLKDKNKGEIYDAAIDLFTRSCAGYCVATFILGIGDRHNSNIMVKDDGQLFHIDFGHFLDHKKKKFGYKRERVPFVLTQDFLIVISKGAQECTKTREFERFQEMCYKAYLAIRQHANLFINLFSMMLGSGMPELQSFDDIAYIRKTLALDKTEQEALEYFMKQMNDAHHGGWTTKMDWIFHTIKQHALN

Compound | IC50
CCc1ncnc(-c2ccc(C(=O)N(C)CCOC)c(F)c2)c1C#Cc1ccc(N)nc1 [Example D-7] | 103 nM
CCc1ncnc(-c2ccc(C(=O)N(C)CC3CCN(C)CC3)c(F)c2)c1C#Cc1ccc(N)nc1 [Example D-76] | 339 nM
CCc1ncnc(-c2cc(F)c(C(=O)N3CCN(C)CC3)c(F)c2)c1C#Cc1ccc(N)nc1 [Example E-1] | 132 nM
CCc1ncnc(-c2cc(F)c(C(=O)N3CCN(C4COC4)CC3)c(Cl)c2)c1C#Cc1ccc(N)nc1 [Example E-282] | 173 nM
CCc1ncnc(-c2cc(F)c(C(=O)N3CC4(CN(C)C4)C3)c(Cl)c2)c1C#Cc1ccc(N)nc1 [Example E-289] | 298 nM
CCc1ncnc(-c2ccc(C(=O)N3CCN(c4ccncc4)CC3)c(Cl)c2)c1C#Cc1ccc(N)nc1 [Example E-37] | 209 nM
CCc1ncnc(-c2cc(F)c(C(=O)N3CCN(CCN)CC3)c(Cl)c2)c1C#Cc1ccc(N)nc1 [Example E-286] | 527 nM
CCc1ncnc(-c2ccc(C(=O)NC3CC(N4CCC(N5CCCC5)CC4)C3)c(F)c2)c1C#Cc1ccc(N)nc1 [Example D-208] | 308 nM
CCc1ncnc(-c2cc(F)c(C(=O)N3CCN(Cc4nc(C)c(C)o4)CC3)c(F)c2)c1C#Cc1ccc(N)nc1 [Example E-300] | 783 nM
CCc1ncnc(-c2cc(F)c(C(=O)N3CCN(C)C(=O)C3)c(Cl)c2)c1C#Cc1ccc(N)nc1 [Example E-239] | 46.2 nM
CCc1ncnc(-c2cc(F)c(C(=O)N3CCN(C(C)(C)C)CC3)c(F)c2)c1C#Cc1ccc(N)nc1 [Example E-8] | 1320 nM
CCc1ncnc(-c2ccc(C(=O)N3CC[C@H](O)C3)c(F)c2)c1C#Cc1ccc(N)nc1 [Example D-203] | 57 nM
CCc1ncnc(-c2cc(F)c(C(=O)N3CCN(CCC#N)CC3)c(F)c2)c1C#Cc1ccc(NC)nc1 [Example E-221] | 213 nM
CCc1ncnc(-c2ccc(C(=O)N3CCC4(CCN(C)C4)C3)c(C)c2)c1C#Cc1ccc(N)nc1 (centres unmarked) [Example E-112] | 249 nM
CCc1ncnc(-c2ccc(C(=O)N3CCC(N4CCCCC4)CC3)c(F)c2)c1C#Cc1ccc(N)nc1 [Example D-70] | 490 nM
CCc1ncnc(-c2ccc(C(=O)N3CCCCC3)c(F)c2)c1C#Cc1ccc(N)nc1C [Example D-10] | 206 nM
Cc1ncnc(-c2cccc(C(=O)N(C)C)c2)c1C#Cc1ccc(N)nc1 [Example C-10] | 401 nM
CCc1ncnc(-c2ccc(C(=O)N(C)CCCO)c(F)c2)c1C#Cc1ccc(N)nc1 [Example D-4] | 58 nM
CCc1ncnc(-c2ccc(C(=O)NC3CCS(=O)(=O)C3)c(F)c2)c1C#Cc1ccc(N)nc1 [Example D-212] | 79 nM
CCNc1ccc(C#Cc2c(CC)ncnc2-c2ccc(C(=O)N3CCC4(CC3)COC4)c(F)c2)cn1 [Example E-263] | 204 nM
CCc1ncnc(-c2ccc(C(=O)N3CCC4(CCNCC4)C3)c(F)c2)c1C#Cc1ccc(N)nc1 [Example E-328] | 586 nM
CCc1ncnc(-c2ccc(C(=O)N3CC4(CN(C)C4)C3)c(Cl)c2)c1C#Cc1ccc(N)nc1 [Example E-334] | 966 nM
CCc1ncnc(-c2ccc(C(=O)N3CC4(CN(C)C4)C3)c(F)c2)c1C#Cc1ccc(N)nc1 [Example E-287] | 288 nM
CCc1ncnc(-c2ccc(C(=O)N3CCC4(CC3)OCCCO4)c(C)c2)c1C#Cc1ccc(N)nc1 [Example E-117] | 73.5 nM
CCc1ncnc(-c2ccc(C(=O)N3CCC(N4CCCC4)C3)c(F)c2)c1C#Cc1ccc(N)nc1 [Example D-235] | 226 nM

Compound | IC50
CCc1ncnc(-c2ccc(C(=O)N3CC[C@H](N(C)C)C3)c(F)c2)c1C#Cc1ccc(N)nc1 [Example D-237] | 161 nM
CCc1ncnc(-c2cc(F)c(C(=O)N3CCN(CC)CC3)c(Cl)c2)c1C#Cc1ccc(N)nc1 [Example E-235] | 178 nM
CCc1ncnc(-c2ccc(C(=O)N3CCCO3)c(C)c2)c1C#Cc1ccc(N)nc1 [Example E-94] | 146 nM
CCc1ncnc(-c2ccc(C(=O)N3CCOCC3)c(F)c2)c1C#Cc1ccc(N)nc1C [Example D-20] | 116 nM
CCc1ncnc(-c2ccc(C(=O)N3CCN(C)CC3)c(F)c2)c1C#Cc1ccc(NC)nc1 [Example E-182] | 247 nM
CCc1ncnc(-c2ccc(C(=O)N3CCN(CCCS(C)(=O)=O)CC3)c(F)c2)c1C#Cc1ccc(N)nc1 [Example E-250] | 92.2 nM
CCc1ncnc(-c2ccc(C(=O)N3CCN(C(C)CO)CC3)c(F)c2)c1C#Cc1ccc(N)nc1 (centres unmarked) [Example E-292] | 212 nM
CCc1ncnc(-c2cc(Cl)c(C(=O)N3CCC(C)(O)CC3)c(Cl)c2)c1C#Cc1ccc(N)nc1 [Example E-203] | 95.2 nM
CCc1ncnc(-c2cc(F)c(C(=O)N3CCN(Cc4nc(C)c(C)o4)CC3)c(Cl)c2)c1C#Cc1ccc(N)nc1 [Example E-307] | 193 nM
CCc1ncnc(-c2ccc(C(=O)N3CCN(CC4CC4)CC3)c(Cl)c2)c1C#Cc1ccc(N)nc1 [Example E-18] | 228 nM
CCc1ncnc(-c2ccc(C(=O)N(C)C3CCS(=O)(=O)C3)c(Cl)c2)c1C#Cc1ccc(N)nc1 (centres unmarked) [Example E-80] | 48.2 nM
CCc1ncnc(-c2cc(F)c(C(=O)N3CCC(C(C)O)CC3)c(F)c2)c1C#Cc1ccc(NC)nc1 (centres unmarked) [Example E-213] | 465 nM
CCc1ncnc(-c2ccc(C(=O)N3CCN(c4ccccc4)CC3)c(Cl)c2)c1C#Cc1ccc(N)nc1 [Example D-39] | 89 nM
CCc1ncnc(-c2ccc(C(=O)N3CCC(N(CC)CC)C3)c(F)c2)c1C#Cc1ccc(N)nc1 [Example D-238] | 382 nM
CCc1ncnc(-c2ccc(C(=O)N(C)CCOC)c(Cl)c2)c1C#Cc1ccc(N)nc1 [Example D-35] | 63 nM
CCc1ncnc(-c2ccc(C(=O)N3CCN(CC)CC3)c(Cl)c2)c1C#Cc1ccc(NC)nc1 [Example E-189] | 186 nM
CCc1ncnc(-c2cc(F)c(C(=O)N3CCN(CC)CC3)c(F)c2)c1C#Cc1ccc(NC)nc1 [Example E-211] | 472 nM
CCc1ncnc(-c2ccc(C(=O)N3CCN(c4ccccc4)CC3)c(F)c2)c1C#Cc1ccc(N)nc1 [Example D-98] | 199 nM
CCc1ncnc(-c2ccc(C(=O)NCC(O)CN(C)C)c(F)c2)c1C#Cc1ccc(N)nc1 [Example D-196] | 292 nM
CCc1ncnc(-c2ccc(C(=O)N3CCN(CC(C)O)CC3)c(Cl)c2)c1C#Cc1ccc(N)nc1 (centres unmarked) [Example E-317] | 92.8 nM
CCc1ncnc(-c2ccc(C(=O)N3CCN(C)C(=O)C3)c(F)c2)c1C#Cc1ccc(N)nc1 [Example D-133] | 115 nM
CCOC(=O)N1CCN(C(=O)c2ccc(-c3ncnc(CC)c3C#Cc3ccc(N)nc3)cc2OC)CC1 [Example E-62] | 246 nM
CCc1ncnc(-c2ccc(C(=O)N3CCC[C@H]3CO)c(F)c2)c1C#Cc1ccc(N)nc1 [Example E-17] | 136 nM
CCc1ncnc(-c2ccc(Cl)c(C(=O)N3CCCCC3)c2)c1C#Cc1ccc(N)nc1 [Example C-48] | 596 nM
CCc1ncnc(-c2ccc(C(=O)N3CCCO3)cc2)c1C#Cc1ccc(N)nc1 [Example D-222] | 42 nM

Compound | IC50
CCc1ncnc(-c2ccc(C(=O)N3CCC(C)(O)CC3)c(Cl)c2)c1C#Cc1ccc(N)nc1 [Example E-25] | 76.8 nM
CCc1ncnc(-c2cc(F)c(C(=O)N3CCN(C(C)CO)CC3)c(Cl)c2)c1C#Cc1ccc(N)nc1 (centres unmarked) [Example E-306] | 108 nM
CCc1ncnc(-c2ccc(C(=O)N3CCC4(CCN(C)C4)C3)c(Cl)c2)c1C#Cc1ccc(N)nc1 (centres unmarked) [Example E-40] | 514 nM
CCc1ncnc(-c2ccnc(C)c2)c1C#Cc1ccc(N)nc1 [Example C-27] | 57 nM
CCc1ncnc(-c2ccc(C(=O)N3CCN4CCCCC4C3)c(OC)c2)c1C#Cc1ccc(N)nc1 (centres unmarked) [Example E-57] | 280 nM
CCc1ncnc(-c2ccc(C(=O)N(C)O)c(C)c2)c1C#Cc1ccc(N)nc1 [Example E-128] | 37.2 nM
CCc1ncnc(-c2cnc3ccccc3c2)c1C#Cc1ccc(N)nc1 [Example C-29] | 24 nM
CCc1ncnc(-c2ccc(C(=O)N3CC[C@@H](N(C)C)C3)c(F)c2)c1C#Cc1ccc(NC)nc1 [Example E-180] | 357 nM
Cc1ncnc(-c2ccc(C(=O)N3CCN(CCO)CC3)cc2)c1C#Cc1ccc(N)nc1 [Example D-194] | 106 nM
Cc1ncnc(-c2ccc(C(=O)N3CCCCO3)c(Cl)c2)c1C#Cc1ccc(N)nc1 [Example D-231] | 46 nM
CCc1ncnc(-c2ccc(S(C)(=O)=O)cc2)c1C#Cc1ccc(C)nc1 [Example C-17] | 99 nM
CCc1ncnc(-c2ccc(C(=O)N3CCN(C)CC3)c(F)c2)c1C#Cc1ccc(N)nc1C [Example D-21] | 270 nM
CCc1ncnc(-c2ccc(C(=O)N3CCN(Cc4ccccc4)CC3)c(Cl)c2)c1C#Cc1ccc(N)nc1 [Example D-160] | 658 nM
CCc1ncnc(-c2ccc(C(=O)N3CCC4(CCN(C)C4)C3)c(OC)c2)c1C#Cc1ccc(N)nc1 (centres unmarked) [Example E-66] | 662 nM
CCc1ncnc(-c2ccc(C(=O)N3CCC(N4CCOCC4)CC3)c(OC(F)(F)F)c2)c1C#Cc1ccc(N)nc1 [Example E-228] | 356 nM
CCc1ncnc(-c2ccc(C(=O)N3CCC(N4CCCCC4)CC3)c(C)c2)c1C#Cc1ccc(N)nc1 [Example E-109] | 259 nM
CCc1ncnc(-c2ccc(C(=O)N3CCNCC3)c(Cl)c2)c1C#Cc1ccc(N)nc1 [Example E-34] | 164 nM
CCc1ncnc(-c2cc(F)c(C(=O)N3CCN(CC4CC4)CC3)c(F)c2)c1C#Cc1ccc(N)nc1 [Example E-7] | 189 nM
CCc1ncnc(-c2ccc(C(=O)NCCOC)c(Cl)c2)c1C#Cc1ccc(N)nc1 [Example D-33] | 181 nM
CCc1ncnc(-c2ccc(C(=O)N3CCN(C(CC)CC)CC3)c(F)c2)c1C#Cc1ccc(N)nc1 [Example D-130] | 384 nM
CCc1ncnc(-c2ccc(C(=O)N3CCC(OC)CC3)c(Cl)c2)c1C#Cc1ccc(N)nc1 [Example D-142] | 94 nM
CCc1ncnc(-c2ccc(C(=O)N3CCN(C(C)=O)CC3)c(F)c2)c1C#Cc1ccc(N)nc1 [Example D-90] | 62 nM
CCNc1ccc(C#Cc2c(CC)ncnc2-c2ccc(C(=O)N3CCC(N4CCOCC4)CC3)c(F)c2)cn1 [Example E-259] | 209 nM
CCc1ncnc(-c2ccc(C(=O)N3CCC(N4CCCCCC4)CC3)c(OC)c2)c1C#Cc1ccc(N)nc1 [Example E-58] | 253 nM
